Source: patent US11504394B2, “Targeted ionophore-based metal delivery” (The Regents of the University of California, priority 2018, dated 2022)

What was measured:
CTR1 = assay: Western blot of liver lysates, CTR1; assay type: in vivo, mouse; details: 6 and 24 hour timepoints
Protocol: Frozen mouse livers were minced into 50 mg samples on dry ice and homogenized in ice-cold RIPA buffer (25 mM Tris.HCl pH 7.6, 150 mM NaCl, 1% NP-40, 1% sodium deoxycholate, 0.1% SDS) containing protease inhibitor cocktail with EDTA (Roche) at 100 mg/mL using a hand-held mechanical homogenizer. Homogenates were incubated on ice for 30 min and centrifuged at 12,000×g for 20 min at 4° C. The soluble protein lysates were collected from underneath the upper lipid layer with a pipette and transferred to new tubes. Protein concentration was determined using a detergent-compatible Bradford Assay (Pierce).
Protein lysates were denatured in NuPAGE lithium dodecyl sulfate sample buffer (Invitrogen) containing 10% v/v β-mercaptoethanol as a reducing agent. […] The membranes were washed 5 times for 5 minutes in TBST, then visualized using enhanced chemiluminescence (Western Lighting Plus for visualizing CCS and ATP7B, Perkin Elmer; Western Clarity Max for visualizing CTR1 and MT, Bio-Rad) recorded on a BioRad GelDoc imaging station. β-actin was probed to determine equal loading using anti-β-actin (sc-69879, Santa Cruz Biotechnology) and AlexaFluor 647-conjugated anti-mouse IgG (A31571, Molecular Probes) antibodies at 1:5000 and 1:2500 dilutions, respectively, with visualization using fluorescence recorded on a BioRad GelDoc imaging station.

[1] = Stability in aqueous solutions at different pH (UV-vis); assay type: physicochemical; details: pH=3 to 8
Protocol: All spectroscopic measurements were performed in 20 mM PBS, pH 7.4 unless otherwise indicated. Absorption spectra were acquired on a Varian Cary 50 spectrophotometer.

## CNC1=N[N+]2=CC=[N+]3N=C(NCCOCCOCCOC4OC(CO)C(O)C(O)C4NC(C)=O)[S][Cu-2]23[S]1 (centres unmarked) [Gal-Cu(gtsm)]
CTR1
  CTR1 expression (monomer and truncated forms) in liver: Increased expression
[1]
  stability of complex in aqueous buffers: stable
